Patent publication US6355799B1, “Substituted benzene compounds, process for their preparation, and herbicidal and defoliant compositions containing them” (ISK Americas Incorporated, priority 1997, dated 2002)

Assays:
Format in all cases: in vivo
[1] = test system: green foxtail (Setaria viridis, SETVI); assay: Pre-emerge test, greenhouse herbicide activity screening; conditions: for Pre-emerge Herbicidal Activity SETVI: phytotoxicity rating 0-100, 14 days after application; for phytotoxicity rating SETVI: pre-emerge, 14 days after application, scale 0-100
Procedure, shortened: (§1)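 Visual ratings on a 0-100 scale (0 no damage, 100 all plants dead) were taken at 14 days after treatment. Rates of 15-1000 g ai/ha in acetone, 187 l/ha, were sprayed onto soil one day after planting (pre-emerge) or onto 2-3 leaf plants with 0.25% v/v surfactant (post-emerge).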

[2] = test system: ivyleaf morningglory (Ipomoea hederacea, IPOHE); assay: as above; conditions: for Pre-emerge Herbicidal Activity IPOHE: phytotoxicity rating 0-100, 14 days after application; for phytotoxicity rating IPOHE: pre-emerge, 14 days after application, scale 0-100
Procedure, shortened: as §1

[3] = test system: barnyardgrass (Echinochloa crus-galli, ECHCG); assay: as above; conditions: for Pre-emerge Herbicidal Activity ECHCG: phytotoxicity rating 0-100, 14 days after application; for phytotoxicity rating ECHCG: pre-emerge, 14 days after application, scale 0-100
Procedure, shortened: as §1

[4] = test system: sicklepod (Cassia obtusifolia, CASOB); assay: as above; conditions: for Pre-emerge Herbicidal Activity CASOB: phytotoxicity rating 0-100, 14 days after application; for phytotoxicity rating CASOB: pre-emerge, 14 days after application, scale 0-100
Procedure, shortened: as §1

[5] = test system: johnsongrass (Sorghum halepense, SORHA); assay: as above; conditions: for Pre-emerge Herbicidal Activity SORHA: phytotoxicity rating 0-100, 14 days after application; for phytotoxicity rating SORHA: pre-emerge, 14 days after application, scale 0-100
Procedure, shortened: as §1

[6] = test system: velvetleaf (Abutilon theophrasti, ABUTH); assay: as above; conditions: for Pre-emerge Herbicidal Activity ABUTH: phytotoxicity rating 0-100, 14 days after application; for phytotoxicity rating ABUTH: pre-emerge, 14 days after application, scale 0-100
Procedure, shortened: as §1

[7] = test system: common ragweed (Ambrosia artemisizfolia L., AMBEL); assay: as above; conditions: for Pre-emerge Herbicidal Activity AMBEL: phytotoxicity rating 0-100, 14 days after application; for phytotoxicity rating AMBEL: pre-emerge, 14 days after application, scale 0-100
Procedure, shortened: as §1

[8] = test system: large crabgrass (Digitaria sanguinalis, DIGSA); assay: as above; conditions: for Pre-emerge Herbicidal Activity DIGSA: phytotoxicity rating 0-100, 14 days after application; for phytotoxicity rating DIGSA: pre-emerge, 14 days after application, scale 0-100
Procedure, shortened: as §1

[9] = test system: lambsquarters (Chenopodium album, CHEAL); assay: as above; conditions: for Pre-emerge Herbicidal Activity CHEAL: phytotoxicity rating 0-100, 14 days after application; for phytotoxicity rating CHEAL: pre-emerge, 14 days after application, scale 0-100
Procedure, shortened: as §1

[10] = test system: upland rice (Oryza sp., var. Tebonnet, RICE); assay: Pre-emerge test, crop safety; conditions: for Pre-emerge Herbicidal Activity RICE: crop damage rating 0-100, 14 days after application; for phytotoxicity rating RICE (crop damage): pre-emerge, 14 days after application, scale 0-100
Procedure, shortened: (§2)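 Sandy loam pots; pre-emerge: sown 1 d pre-spray, surface-watered after, then bottom-watered. Post-emerge: sown 8–21 d before, 2–3 leaf stage, + 0.25% v/v NIS, bottom-watered. Acetone, 187 l/ha track spray, 15–1000 g ai/ha. 0–100 injury score, day 14.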

[11] = test system: field corn (Zea mays L., var. Dekalb 535, CORN); assay: Pre-emerge test, crop safety; conditions: for Pre-emerge Herbicidal Activity CORN: crop damage rating 0-100, 14 days after application; for phytotoxicity rating CORN (crop damage): pre-emerge, 14 days after application, scale 0-100
Procedure, shortened: as §2

[12] = test system: green foxtail (Setaria viridis, SETVI); assay: Post-emerge test, greenhouse herbicide activity screening; conditions: post-emerge, 14 days after application, rating scale 0-100
Procedure, shortened: (§3)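 Fourteen days after spraying, crop and weed injury was graded visually from 0, no effect, to 100, every plant dead. Test substances were dissolved in acetone and applied at 15–1000 g ai/ha with a flat-fan nozzle. Application was either pre-emergence, one day after sowing, or post-emergence at the 2–3 leaf stage.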

[13] = test system: redroot pigweed (Amaranthus retroflexus, AMARE); assay: as above; conditions: post-emerge, 14 days after application
Procedure, shortened: as §3

[14] = test system: ivyleaf morningglory (Ipomoea hederacea, IPOHE); assay: as above; conditions: post-emerge, 14 days after application, rating scale 0-100
Procedure, shortened: as §3

[15] = test system: barnyardgrass (Echinochloa crus-galli, ECHCG); assay: as above; conditions: post-emerge, 14 days after application, rating scale 0-100
Procedure, shortened: as §3

[16] = test system: sicklepod (Cassia obtusifolia, CASOB); assay: as above; conditions: post-emerge, 14 days after application, rating scale 0-100
Procedure, shortened: as §3

[17] = test system: johnsongrass (Sorghum halepense, SORHA); assay: as above; conditions: post-emerge, 14 days after application, rating scale 0-100
Procedure, shortened: as §3

[18] = test system: velvetleaf (Abutilon theophrasti, ABUTH); assay: as above; conditions: post-emerge, 14 days after application, rating scale 0-100
Procedure, shortened: as §3

[19] = test system: large crabgrass (Digitaria sanguinalis, DIGSA); assay: as above; conditions: post-emerge, 14 days after application, rating scale 0-100
Procedure, shortened: as §3

[20] = test system: lambsquarters (Chenopodium album, CHEAL); assay: as above; conditions: post-emerge, 14 days after application, rating scale 0-100
Procedure, shortened: as §3

[21] = test system: redroot pigweed (Amaranthus retroflexus, AMARE); assay: Pre-emerge test, greenhouse herbicide activity screening; conditions: for Pre-emerge Herbicidal Activity AMARE: phytotoxicity rating 0-100, 14 days after application; for phytotoxicity rating AMARE: pre-emerge, 14 days after application, scale 0-100
Procedure, shortened: as §2

[22] = test system: upland rice (Oryza sp., var. Tebonnet, RICE); assay: Post-emerge test, crop safety; conditions: post-emerge, 14 days after application, rating scale 0-100
Procedure, shortened: as §1

[23] = test system: field corn (Zea mays L., var. Dekalb 535, CORN); assay: Post-emerge test, crop safety; conditions: post-emerge, 14 days after application, rating scale 0-100
Procedure, shortened: as §1

[24] = 250 g ai/ha, rating scale 0-100

CC(C)Oc1c(Cl)cc(F)c(-n2c(=O)cc(C(F)(F)F)n(C)c2=O)c1NC(=O)c1ccc2ccccc2c1 [2-197]
Pre-emerge Herbicidal Activity SETVI ([1]; 63 g ai/ha): 50 | Pre-emerge Herbicidal Activity SETVI ([1]; 250 g ai/ha): 100 | Pre-emerge Herbicidal Activity IPOHE ([2]; 63 g ai/ha): 30 | Pre-emerge Herbicidal Activity IPOHE ([2]; 250 g ai/ha): 50 | Pre-emerge Herbicidal Activity ECHCG ([3]; 63 g ai/ha): 0 | Pre-emerge Herbicidal Activity ECHCG ([3]; 250 g ai/ha): 50 | Pre-emerge Herbicidal Activity CASOB ([4]; 63 g ai/ha): 0 | Pre-emerge Herbicidal Activity CASOB ([4]; 250 g ai/ha): 50 | Pre-emerge Herbicidal Activity SORHA ([5]; 63 g ai/ha): 0 | Pre-emerge Herbicidal Activity SORHA ([5]; 250 g ai/ha): 20 | Pre-emerge Herbicidal Activity ABUTH ([6]; 63 g ai/ha): 90 | Pre-emerge Herbicidal Activity ABUTH ([6]; 250 g ai/ha): 100 | Pre-emerge Herbicidal Activity AMBEL ([7]; 63 g ai/ha): 100 | Pre-emerge Herbicidal Activity AMBEL ([7]; 250 g ai/ha): 100 | Pre-emerge Herbicidal Activity DIGSA ([8]; 63 g ai/ha): 80 | Pre-emerge Herbicidal Activity DIGSA ([8]; 250 g ai/ha): 100 | Pre-emerge Herbicidal Activity CHEAL ([9]; 63 g ai/ha): 100 | Pre-emerge Herbicidal Activity CHEAL ([9]; 250 g ai/ha): 100 | Pre-emerge Herbicidal Activity RICE ([10]; 63 g ai/ha): 30 | Pre-emerge Herbicidal Activity RICE ([10]; 250 g ai/ha): 80 | Pre-emerge Herbicidal Activity CORN ([11]; 63 g ai/ha): 0 | Pre-emerge Herbicidal Activity CORN ([11]; 250 g ai/ha): 0 | phytotoxicity rating SETVI ([12]; 63 g ai/ha): 10 | phytotoxicity rating SETVI ([12]; 250 g ai/ha): 20 | phytotoxicity rating AMARE ([13]; 63 g ai/ha, rating scale 0-100 (0 no damage, 100 complete death)): 100 | phytotoxicity rating AMARE [13, 24]: 100 | phytotoxicity rating IPOHE ([14]; 63 g ai/ha): 100 | phytotoxicity rating IPOHE ([14]; 250 g ai/ha): 90 | phytotoxicity rating ECHCG ([15]; 63 g ai/ha): 0 | phytotoxicity rating ECHCG ([15]; 250 g ai/ha): 20 | phytotoxicity rating CASOB ([16]; 63 g ai/ha): 80 | phytotoxicity rating CASOB ([16]; 250 g ai/ha): 80 | phytotoxicity rating SORHA ([17]; 63 g ai/ha): 0 | phytotoxicity rating SORHA ([17]; 250 g ai/ha): 50 | phytotoxicity rating ABUTH ([18]; 63 g ai/ha): 100 | phytotoxicity rating ABUTH ([18]; 250 g ai/ha): 100 | phytotoxicity rating DIGSA ([19]; 63 g ai/ha): 10 | phytotoxicity rating DIGSA ([19]; 250 g ai/ha): 10 | phytotoxicity rating CHEAL ([20]; 63 g ai/ha): 100 | phytotoxicity rating CHEAL ([20]; 250 g ai/ha): 100 | Pre-emerge Herbicidal Activity AMARE ([21]; 63 g ai/ha): 100 | Pre-emerge Herbicidal Activity AMARE ([21]; 250 g ai/ha): 100 | phytotoxicity rating RICE (crop damage) ([22]; 63 g ai/ha): 20 | phytotoxicity rating RICE (crop damage) ([22]; 250 g ai/ha): 30 | phytotoxicity rating CORN (crop damage) ([23]; 63 g ai/ha): 10 | phytotoxicity rating CORN (crop damage) ([23]; 250 g ai/ha): 10

CCCSCC(=O)Nc1c(OC)c(Cl)cc(F)c1-n1c(=O)cc(C(F)(F)F)n(C)c1=O [2-174]
phytotoxicity rating SETVI ([1]; 63 g ai/ha): 20 | phytotoxicity rating SETVI ([1]; 250 g ai/ha): 90 | phytotoxicity rating IPOHE ([2]; 63 g ai/ha): 30 | phytotoxicity rating IPOHE ([2]; 250 g ai/ha): 100 | phytotoxicity rating ECHCG ([3]; 63 g ai/ha): 0 | phytotoxicity rating ECHCG ([3]; 250 g ai/ha): 60 | phytotoxicity rating CASOB ([4]; 63 g ai/ha): 40 | phytotoxicity rating CASOB ([4]; 250 g ai/ha): 80 | phytotoxicity rating SORHA ([5]; 63 g ai/ha): 10 | phytotoxicity rating SORHA ([5]; 250 g ai/ha): 90 | phytotoxicity rating ABUTH ([6]; 63 g ai/ha): 100 | phytotoxicity rating ABUTH ([6]; 250 g ai/ha): 100 | phytotoxicity rating AMBEL ([7]; 63 g ai/ha): 10 | phytotoxicity rating AMBEL ([7]; 250 g ai/ha): 90 | phytotoxicity rating DIGSA ([8]; 63 g ai/ha): 20 | phytotoxicity rating DIGSA ([8]; 250 g ai/ha): 70 | phytotoxicity rating CHEAL ([9]; 63 g ai/ha): 80 | phytotoxicity rating CHEAL ([9]; 250 g ai/ha): 100 | phytotoxicity rating RICE (crop damage) ([10]; 63 g ai/ha): 10 | phytotoxicity rating RICE (crop damage) ([10]; 250 g ai/ha): 50 | phytotoxicity rating CORN (crop damage) ([11]; 63 g ai/ha): 0 | phytotoxicity rating CORN (crop damage) ([11]; 250 g ai/ha): 60 | SETVI phytotoxicity rating ([12]; 63 g ai/ha): 10 | SETVI phytotoxicity rating ([12]; 250 g ai/ha): 10 | AMARE phytotoxicity rating ([13]; 63 g ai/ha, rating scale 0-100): 60 | AMARE phytotoxicity rating [13, 24]: 60 | IPOHE phytotoxicity rating ([14]; 63 g ai/ha): 70 | IPOHE phytotoxicity rating ([14]; 250 g ai/ha): 80 | ECHCG phytotoxicity rating ([15]; 63 g ai/ha): 0 | ECHCG phytotoxicity rating ([15]; 250 g ai/ha): 0 | CASOB phytotoxicity rating ([16]; 63 g ai/ha): 60 | CASOB phytotoxicity rating ([16]; 250 g ai/ha): 75 | SORHA phytotoxicity rating ([17]; 63 g ai/ha): 0 | SORHA phytotoxicity rating ([17]; 250 g ai/ha): 0 | ABUTH phytotoxicity rating ([18]; 63 g ai/ha): 60 | ABUTH phytotoxicity rating ([18]; 250 g ai/ha): 80 | DIGSA phytotoxicity rating ([19]; 63 g ai/ha): 0 | DIGSA phytotoxicity rating ([19]; 250 g ai/ha): 10 | CHEAL phytotoxicity rating ([20]; 63 g ai/ha): 55 | CHEAL phytotoxicity rating ([20]; 250 g ai/ha): 85 | phytotoxicity rating AMARE ([21]; 63 g ai/ha): 90 | phytotoxicity rating AMARE ([21]; 250 g ai/ha): 100 | RICE phytotoxicity rating (crop damage) ([22]; 63 g ai/ha): 20 | RICE phytotoxicity rating (crop damage) ([22]; 250 g ai/ha): 20 | CORN phytotoxicity rating (crop damage) ([23]; 63 g ai/ha): 10 | CORN phytotoxicity rating (crop damage) ([23]; 250 g ai/ha): 25
